Assay results as given in patent EP0201999A1 (priority 1985, dated 1986).
Marks after values point to notes of the source that are not given here.

How the values were obtained:
Assay type in all cases: in vivo
CERCOSPORA ARACHIDICOLA = assay: Foliar fungal disease test on plants (Example 29), Cercospora arachidicola on peanuts; conditions: 100 ppm a.i. foliar spray plus root drench approx. 40 ppm ai./dry soil, mostly protectant, applied 1-2 days before inoculation
Description: (§1) The compounds were tested against a variety of mainly foliar fungal diseases of plants. The techniques employed were as follows.
(§2) For all tests the plants were grown in John Innes Potting Compost (No. 1 or 2) in 4 cm diameter minipots. The test compounds were formulated either by bead milling with aqueous Dispersol T or as a solution in acetone or acetone/ethanol which was diluted to the required concentration immediately before use. The solutions or suspensions (100 ppm ia.) were sprayed on the foliage and applied to the roots of the plant via the soil. The sprays were applied to maximum retention and the root drenches to a final concentration equivalent to approximately 40 ppm ai./dry soil. "TWEEN" 20, to give a final concentration of 0.05%, was added when the sprays were applied to cereals. (a.i. means "active ingredient"). The word "TWEEN" is a Trade Mark.
(§3) Most were protectant tests where the compound was applied to the soil and roots and to the foliage one or two days before the plant was inoculated with the pathogen. The foliar pathogens were applied by spraying as spore suspensions onto the leaves of the test plants.
(§4) After inoculation, the plants were placed in an appropriate environment to allow infection to proceed and then incubated until the disease was ready for assessment. The period between inoculation and assessment varied from four to fourteen days according to the disease and the environment.
(§5) Disease control was recorded using the following grading system : • 4 = no disease • 3 = trace to 5% of disease on untreated plants • 2 = 6-25% of disease on untreated plants • 1 = 26-59% of disease on untreated plants • 0 = 60-100% of disease on untreated plants

[…] [1] = Root drench test against Plasmopara viticola on vines (Example 30); conditions: vines (variety ohanez), 25 ppm, approx. 10 ppm compound/dry soil, inoculated after 2 days, assessed six days later
Description: This Example illustrates the activity of the invention compounds against the disease Plasmopara viticola on vines.
For the test on Plasmopara viticola the vine plants (variety ohanez) were grown in John Innes Potting Compost (No. 1 or 2) in 4 cm diameter minipots. The test compounds were formulated either by bead milling with aqueous Dispersol T or as a solution in acetone or acetone/ ethanol which was diluted to a concentration of 25 ppm of the compound immediately before use. The solutions or suspensions were applied as a root drench to a final concentration equivalent to approximately 10 ppm compound/dry soil. After 2 days the plants were inoculated with the pathogen, and then placed in a humidity cabinet to allow infection to proceed, and the assessment carried out six days later.
The disease grading system was as for Example 29.

P[…] = conditions: 100 ppm a.i. foliar spray plus root drench approx. 40 ppm ai./dry soil, mostly protectant, applied 1-2 days before inoculation
VENTURIA INAEQUALIS = assay: Foliar fungal disease test on plants (Example 29), Venturia inaequalis on apples; conditions: 100 ppm a.i. foliar spray plus root drench approx. 40 ppm ai./dry soil, mostly protectant, applied 1-2 days before inoculation
Description: as §1, §2, §3, §4, §5

PUCCINIA RECONDITA = assay: Foliar fungal disease test on plants (Example 29), Puccinia recondita on wheat; conditions: 100 ppm a.i. foliar spray plus root drench approx. 40 ppm ai./dry soil, mostly protectant, applied 1-2 days before inoculation
Description: as §1, §2, §3, §4, §5

[…] [2] = Foliar fungal disease test on plants (Example 29), […] on vines; conditions: 100 ppm a.i. foliar spray plus root drench approx. 40 ppm ai./dry soil, mostly protectant, applied 1-2 days before inoculation
Description: as §1, §2, §3, §4, §5

[…] [3] = Root drench test against Plasmopara viticola on vines (Example 30); conditions: vines (variety ohanez), test concentration 30 ppm (marked *), inoculated after 2 days, assessed six days later
[4] = system: Phytophthora infestans lycopersicii; conditions: tomato plants (variety Outdoor Girl); 100 ppm ai.; inoculated after 1 day; 24 hours humidity cabinet, assessed after a further 2 days

Row | SMILES | Disease control CERCOSPORA ARACHIDICOLA (PEANUTS) (CERCOSPORA ARACHIDICOLA) | Disease control […] (VINES) ([…] [1]) | Disease control P[…] (RICE) (P[…]) | Disease control VENTURIA INAEQUALIS (APPLES) (VENTURIA INAEQUALIS) | Disease control PUCCINIA RECONDITA (WHEAT) (PUCCINIA RECONDITA) | Disease control […] (VINES) ([…] [2]) | Disease control […] (VINES) ([…] [3]) | Disease control Phytophthora infestans (tomatoes) [4]
1 | C#CCNC(=O)C(C#N)=NOC [Compound 1, 2-cyano-2-methoxyimino-N-propargylacetamide] | 2 (2 = 6-25% of disease on untreated plants) | 4 | 3 (3 = trace to 5% of disease on untreated plants) | 2 (2 = 6-25% of disease on untreated plants) | 4 | 4 | – | –
2 | CON=C(C#N)C(=O)NCC(I)=CI [Compound 7, 2-cyano-2-methoxyimino-N-2,3-diiodo-allylacetamide] | 0 (0 = 60-100% of disease on untreated plants) | – | 2 (2 = 6-25% of disease on untreated plants) | 0 (0 = 60-100% of disease on untreated plants) | 0 (0 = 60-100% of disease on untreated plants) | 4 | 2* (2 = 6-25% of disease on untreated plants) | –
3 | C#CCN(CC#C)C(=O)C(C#N)=NOC [Compound 9, 2-cyano-2-methoxyimino-N,N-dipropargyl-acetamide] | 0 (0 = 60-100% of disease on untreated plants) | – | 2 (2 = 6-25% of disease on untreated plants) | 0 (0 = 60-100% of disease on untreated plants) | 2 (2 = 6-25% of disease on untreated plants) | 4 | 3* (3 = trace to 5% of disease on untreated plants) | –
4 | C#CCN(CC=C)C(=O)C(C#N)=NOC [Compound 10, 2-cyano-2-methoxyimino-N-(propargyl)-N-allylacetamide] | 2 (2 = 6-25% of disease on untreated plants) | 2 (2 = 6-25% of disease on untreated plants) | 0 (0 = 60-100% of disease on untreated plants) | 0 (0 = 60-100% of disease on untreated plants) | 0 (0 = 60-100% of disease on untreated plants) | 3 (3 = trace to 5% of disease on untreated plants) | – | –
5 | CON=C(C#N)C(=O)NCC#N [Compound 20, 2-cyano-2-methoxyimino-N-(cyanomethyl)-acetamide] | 2 (2 = 6-25% of disease on untreated plants) | 4 | 1 (1 = 26-59% of disease on untreated plants) | 3 (3 = trace to 5% of disease on untreated plants) | 3 (3 = trace to 5% of disease on untreated plants) | 4 | – | 2 (2 = 6-25% of disease on untreated plants)
6 | CCON=C(C#N)C(=O)NCC#N [Compound 22, 2-cyano-2-ethoxyimino-N-(cyanomethyl)-acetamide] | 3 (3 = trace to 5% of disease on untreated plants) | 4 | 3 (3 = trace to 5% of disease on untreated plants) | 4 | 3 (3 = trace to 5% of disease on untreated plants) | 4 | – | –
7 | CON=C(C#N)C(=O)NCC(=O)OC [Compound 24, methoxycarbonylmethyl-(2-cyano-2-methoxyimino)-acetamide] | 2 (2 = 6-25% of disease on untreated plants) | 0 (0 = 60-100% of disease on untreated plants) | 0 (0 = 60-100% of disease on untreated plants) | 0 (0 = 60-100% of disease on untreated plants) | 1 (1 = 26-59% of disease on untreated plants) | 4 | – | –
8 | CON=C(C#N)C(=O)Nc1nccs1 [Compound 25, 2-cyano-2-methoxyimino-N-2-thiazolylacetamide] | 0 (0 = 60-100% of disease on untreated plants) | 0 (0 = 60-100% of disease on untreated plants) | 0 (0 = 60-100% of disease on untreated plants) | 2 (2 = 6-25% of disease on untreated plants) | 3 (3 = trace to 5% of disease on untreated plants) | 4 | – | 2 (2 = 6-25% of disease on untreated plants)
9 | N#CCNC(=O)C(C#N)=NO [Compound 31, 2-cyano-2-oximino-N-(cyanomethyl)-acetamide] | 0 (0 = 60-100% of disease on untreated plants) | – | 2 (2 = 6-25% of disease on untreated plants) | 0 (0 = 60-100% of disease on untreated plants) | 0 (0 = 60-100% of disease on untreated plants) | 0 (0 = 60-100% of disease on untreated plants) | – | –
10 | CON=C(C#N)C(=O)NC(C)C#N (stereo not drawn) [Compound 34, 2-cyano-2-methoxyimino-N-(α-cyanoethyl)-acetamide] | 0 (0 = 60-100% of disease on untreated plants) | 4 | 0 (0 = 60-100% of disease on untreated plants) | 0 (0 = 60-100% of disease on untreated plants) | 4 | 4 | – | 3 (3 = trace to 5% of disease on untreated plants)
11 | CON=C(C#N)C(=O)NCC(N)=S [Compound 54, 2-cyano-2-methoxyimino-N-(thio-carbamoylmethyl)-acetamide] | 3 (3 = trace to 5% of disease on untreated plants) | 4 | 0 (0 = 60-100% of disease on untreated plants) | 0 (0 = 60-100% of disease on untreated plants) | 3 (3 = trace to 5% of disease on untreated plants) | 4 | – | 3 (3 = trace to 5% of disease on untreated plants)
12 | CON=C(C#N)C(=O)NC(C#N)c1ccco1 (stereo not drawn) [Compound 63, 2-cyano-2-methoxyimino-N-[(2-furyl)-α-cyano-methyl]-acetamide] | 0 (0 = 60-100% of disease on untreated plants) | 4 | 0 (0 = 60-100% of disease on untreated plants) | 0 (0 = 60-100% of disease on untreated plants) | 2 (2 = 6-25% of disease on untreated plants) | 4 | – | –
